Laboratory results taken from the supplement of paper PMC11208160.

Experiment: recombinant barcode read abundance after kanamycin selection (control-corrected) (log10(CPM+1)); higher = more efficient recombination; sequences stand for … in AGTGCAGAGAAAATCGGCCAGTTTTCTCTGCCTGCAGTCCGCATGCCGT…AGATTTATGCAGCGGACTGCCTTTCTCCCAAAGTGATAAACCGGACAGTATCATGGACCGGTTTTCCCGGTAATCCGTATTTGCAAGGTTGGTTTCACT; site = the 11-nt target
Description: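 Pooled E. coli target-specificity screen for the IS621 bridge recombinase. Each library plasmid pairs an 11-nt target (CT core) with a bridge RNA whose target-binding loop (9-nt LTG + 4-nt RTG) is reprogrammed; the rest of the 177-nt WT IS621 bridge RNA scaffold is fixed. The plasmid is co-electroporated with a WT donor plasmid; recombinase is induced with 0.1 mM IPTG and recombinants are selected on kanamycin. Recombinant barcodes are sequenced, converted to CPM, averaged over two biological replicates and corrected by the unselected control CPM. Molecule = full bridge RNA written as DNA: LTG = specificity nt 1-9, RTG = reverse complement of specificity nt 8-11, in the WT scaffold.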
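Also: IS621 recombinase and bridge RNA in Escherichia coli cells.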

First: AACTTTCCTTGGGTTCTAACCTGTTGCAT (site AACTGTCCTAT)
Second: AACTTTCCTTGGGTTCTAACCTGTTGCAT (site AACTTTCCTAT)
The “recombinant barcode read abundance (log10)” value of the first is lower: 0.0344 for the first, 0.259 for the second.

Going from “AAGAAGCCTTGGGTTCTAACCTGTTGCCT (site AAGAAGCCTAG)” to “AAGAAGCCTTGGGTTCTAACCTGTTGCCT (site CAGAAGCCTAG)”, the “recombinant barcode read abundance (log10)” value falls from 2.01 to 0.717.

“AAGAAGCCTTGGGTTCTAACCTGTTGCCT (site GAGAAGCCTAG)” and “AAGAAGCCTTGGGTTCTAACCTGTTGCCT (site TAGAAGCCTAG)” are within 0.2 log units of each other in “recombinant barcode read abundance (log10)” value: 0.14 for the first, 0.337 for the second.

First: AAGAATACTTGGGTTCTAACCTGTTGCCT (site AAGAATACTAG)
Second: AAGAATACTTGGGTTCTAACCTGTTGCCT (site GAGAATACTAC)
The “recombinant barcode read abundance (log10)” value of the first is higher: 1.16 for the first, 0.011 for the second.

First: AAGACATCTTGGGTTCTAACCTGTTGCTT (site AAGACATCTAA)
Second: AAGACATCTTGGGTTCTAACCTGTTGCTT (site TAGACATCTAT)
The “recombinant barcode read abundance (log10)” value of the first is higher: 1.19 for the first, 0.24 for the second.

Going from “AAGAGTCCTTGGGTTCTAACCTGTTGCGT (site AAAAGTCCTAG)” to “AAGAGTCCTTGGGTTCTAACCTGTTGCGT (site AAGAGTCCTAC)”, the “recombinant barcode read abundance (log10)” value rises from 0.423 to 2.55.

Going from “AAGATACCTTGGGTTCTAACCTGTTGCTT (site AAGATACCTAA)” to “AAGATACCTTGGGTTCTAACCTGTTGCTT (site AAGATACCTCA)”, the “recombinant barcode read abundance (log10)” value falls from 1.29 to 0.36.

Compared with “AAGATGTCTTGGGTTCTAACCTGTTGCTG (site AAGATGTCTCA)”, “AAGATGTCTTGGGTTCTAACCTGTTGCTG (site TAGAAGTCTCA)” is lower in “recombinant barcode read abundance (log10)” value: 1.74 for the first, 0.0558 for the second.

Going from “AAGATTCCTTGGGTTCTAACCTGTTGCCT (site AAGATTCCTAG)” to “AAGATTCCTTGGGTTCTAACCTGTTGCCT (site ACGATTCCTAG)”, the “recombinant barcode read abundance (log10)” value falls from 0.575 to 0.0379.

“AAGATTCCTTGGGTTCTAACCTGTTGCCT (site AGGATTCCTAG)” and “AAGATTCCTTGGGTTCTAACCTGTTGCCT (site ATGATTCCTAG)” are within 0.2 log units of each other in “recombinant barcode read abundance (log10)” value: 0.111 for the first, 0.217 for the second.

Going from “AAGCATGCTTGGGTTCTAACCTGTTGCTA (site AAGCATGCTTA)” to “AAGCATGCTTGGGTTCTAACCTGTTGCTA (site CTCTTAACTCC)”, the “recombinant barcode read abundance (log10)” value falls from 0.883 to 0.0074.

First: AAGCCAACTTGGGTTCTAACCTGTTGCCT (site AAGCAAACTAG)
Second: AAGCCAACTTGGGTTCTAACCTGTTGCCT (site AAGCCAACTAG)
The “recombinant barcode read abundance (log10)” value of the first is lower: 0.294 for the first, 1.19 for the second.

“AAGCCAACTTGGGTTCTAACCTGTTGCCT (site AAGCGAACTAG)” and “AAGCCAACTTGGGTTCTAACCTGTTGCCT (site AAGCTAACTAG)” are within 0.2 log units of each other in “recombinant barcode read abundance (log10)” value: 0.181 for the first, 0.172 for the second.

First: AAGCCCTCTTGGGTTCTAACCTGTTGCTT (site AAGACCTCTAA)
Second: AAGCCCTCTTGGGTTCTAACCTGTTGCTT (site AAGCCCTCTAA)
The “recombinant barcode read abundance (log10)” value of the first is lower: 0.144 for the first, 2.53 for the second.

“AAGCCCTCTTGGGTTCTAACCTGTTGCTT (site AAGGCCTCTAA)” and “AAGCCCTCTTGGGTTCTAACCTGTTGCTT (site AAGTCCTCTAA)” are within 0.2 log units of each other in “recombinant barcode read abundance (log10)” value: 0 for the first, 0.0167 for the second.

Compared with “AAGCCTTCTTGGGTTCTAACCTGTTGCTG (site AAGCCTTCTCA)”, “AAGCCTTCTTGGGTTCTAACCTGTTGCTG (site GAGCCTTCTCT)” is lower in “recombinant barcode read abundance (log10)” value: 1.68 for the first, 0.236 for the second.

“AAGCGAACTTGGGTTCTAACCTGTTGCCT (site AAGCAAACTAG)” and “AAGCGAACTTGGGTTCTAACCTGTTGCCT (site AAGCCAACTAG)” are within 0.2 log units of each other in “recombinant barcode read abundance (log10)” value: 0.274 for the first, 0.238 for the second.

First: AAGCGAACTTGGGTTCTAACCTGTTGCCT (site AAGCGAACTAG)
Second: AAGCGAACTTGGGTTCTAACCTGTTGCCT (site AAGCTAACTAG)
The “recombinant barcode read abundance (log10)” value of the first is higher: 2.07 for the first, 0.319 for the second.

First: AAGCTAACTTGGGTTCTAACCTGTTGCCT (site AAGCAAACTAG)
Second: AAGCTAACTTGGGTTCTAACCTGTTGCCT (site AAGCCAACTAG)
The “recombinant barcode read abundance (log10)” value of the first is lower: 0.044 for the first, 0.299 for the second.

First: AAGCTAACTTGGGTTCTAACCTGTTGCCT (site AAGCGAACTAG)
Second: AAGCTAACTTGGGTTCTAACCTGTTGCCT (site AAGCTAACTAG)
The “recombinant barcode read abundance (log10)” value of the first is lower: 0.248 for the first, 1.77 for the second.

First: AAGGCCTCTTGGGTTCTAACCTGTTGCCA (site AAGGCCTCTAT)
Second: AAGGCCTCTTGGGTTCTAACCTGTTGCCA (site AAGGCCTCTTG)
The “recombinant barcode read abundance (log10)” value of the first is lower: 0.0333 for the first, 1.88 for the second.

First: AAGGCCTCTTGGGTTCTAACCTGTTGCTT (site AAGACCTCTAA)
Second: AAGGCCTCTTGGGTTCTAACCTGTTGCTT (site AAGCCCTCTAA)
The “recombinant barcode read abundance (log10)” value of the first is higher: 0.775 for the first, 0.156 for the second.

First: AAGGCCTCTTGGGTTCTAACCTGTTGCTT (site AAGGCCTCTAA)
Second: AAGGCCTCTTGGGTTCTAACCTGTTGCTT (site AAGTCCTCTAA)
The “recombinant barcode read abundance (log10)” value of the first is higher: 2.74 for the first, 0.058 for the second.

First: AAGGGCCCTTGGGTTCTAACCTGTTGCCT (site AAGGGCCCTAG)
Second: AAGGGCCCTTGGGTTCTAACCTGTTGCCT (site CAGGGCCCTAG)
The “recombinant barcode read abundance (log10)” value of the first is higher: 2.1 for the first, 0.339 for the second.

First: AAGGGCCCTTGGGTTCTAACCTGTTGCCT (site GAGGGCCCTAG)
Second: AAGGGCCCTTGGGTTCTAACCTGTTGCCT (site TAGGGCCCTAG)
The “recombinant barcode read abundance (log10)” value of the first is lower: 0.122 for the first, 2.24 for the second.

Compared with “AAGGGCGCTTGGGTTCTAACCTGTTGCCT (site AAGGACGCTAG)”, “AAGGGCGCTTGGGTTCTAACCTGTTGCCT (site AAGGCCGCTAG)” is lower in “recombinant barcode read abundance (log10)” value: 0.618 for the first, 0.238 for the second.

Going from “AAGGGCGCTTGGGTTCTAACCTGTTGCCT (site AAGGGCGCTAG)” to “AAGGGCGCTTGGGTTCTAACCTGTTGCCT (site AAGGTCGCTAG)”, the “recombinant barcode read abundance (log10)” value falls from 1.49 to 0.261.

Compared with “AAGGGGCCTTGGGTTCTAACCTGTTGCCT (site AAGGGGCCTAG)”, “AAGGGGCCTTGGGTTCTAACCTGTTGCCT (site CGATCTACTCT)” is lower in “recombinant barcode read abundance (log10)” value: 1.8 for the first, 0.271 for the second.

Compared with “AAGGGGTCTTGGGTTCTAACCTGTTGCTT (site AAGGGGTCTAA)”, “AAGGGGTCTTGGGTTCTAACCTGTTGCTT (site ATGGGGTCTAA)” is lower in “recombinant barcode read abundance (log10)” value: 3.02 for the first, 0.898 for the second.

Going from “AAGGTCGCTTGGGTTCTAACCTGTTGCCT (site AAGGACGCTAG)” to “AAGGTCGCTTGGGTTCTAACCTGTTGCCT (site AAGGCCGCTAG)”, the “recombinant barcode read abundance (log10)” value rises from 0.33 to 1.14.

First: AAGGTCGCTTGGGTTCTAACCTGTTGCCT (site AAGGGCGCTAG)
Second: AAGGTCGCTTGGGTTCTAACCTGTTGCCT (site AAGGTCGCTAG)
The “recombinant barcode read abundance (log10)” value of the first is lower: 0.347 for the first, 2.45 for the second.

Compared with “AAGTATCCTTGGGTTCTAACCTGTTGCGG (site AAGTATCCTCC)”, “AAGTATCCTTGGGTTCTAACCTGTTGCGG (site AGGGATCCTCC)” is lower in “recombinant barcode read abundance (log10)” value: 2.02 for the first, 0.349 for the second.

First: AAGTATTCTTGGGTTCTAACCTGTTGCGT (site AAGTATTCTAC)
Second: AAGTATTCTTGGGTTCTAACCTGTTGCGT (site TAGTCTTCTAC)
The “recombinant barcode read abundance (log10)” value of the first is higher: 2.23 for the first, 0.022 for the second.

First: AAGTCCTCTTGGGTTCTAACCTGTTGCTG (site AAGTCCTCTCA)
Second: AAGTCCTCTTGGGTTCTAACCTGTTGCTG (site CTAAGGCCTAT)
The “recombinant barcode read abundance (log10)” value of the first is higher: 1.43 for the first, 0.442 for the second.

Going from “AAGTCCTCTTGGGTTCTAACCTGTTGCTT (site AAGACCTCTAA)” to “AAGTCCTCTTGGGTTCTAACCTGTTGCTT (site AAGCCCTCTAA)”, the “recombinant barcode read abundance (log10)” value rises from 0.0682 to 0.682.

First: AAGTCCTCTTGGGTTCTAACCTGTTGCTT (site AAGGCCTCTAA)
Second: AAGTCCTCTTGGGTTCTAACCTGTTGCTT (site AAGTCCTCTAA)
The “recombinant barcode read abundance (log10)” value of the first is lower: 0.153 for the first, 1.48 for the second.

Going from “AAGTCGACTTGGGTTCTAACCTGTTGCCT (site AAGTCGACTAG)” to “AAGTCGACTTGGGTTCTAACCTGTTGCCT (site AAGTGGACTAG)”, the “recombinant barcode read abundance (log10)” value falls from 0.76 to 0.0428.

Compared with “AAGTGAGCTTGGGTTCTAACCTGTTGCCA (site AAGTGAGCTTG)”, “AAGTGAGCTTGGGTTCTAACCTGTTGCCA (site CTCCTCTCTAT)” is lower in “recombinant barcode read abundance (log10)” value: 0.408 for the first, 0.0964 for the second.

“AAGTTTACTTGGGTTCTAACCTGTTGCCT (site AAGTTTACTAA)” and “AAGTTTACTTGGGTTCTAACCTGTTGCCT (site AAGTTTACTAG)” are within 0.2 log units of each other in “recombinant barcode read abundance (log10)” value: 0.0435 for the first, 0.0875 for the second.

Going from “AATAAGACTTGGGTTCTAACCTGTTGCCA (site AATAAGACTTG)” to “AATAAGACTTGGGTTCTAACCTGTTGCCA (site AATAGGACTTA)”, the “recombinant barcode read abundance (log10)” value falls from 0.65 to 0.134.

First: AATAAGTCTTGGGTTCTAACCTGTTGCAT (site AATAAGTCTAT)
Second: AATAAGTCTTGGGTTCTAACCTGTTGCAT (site CTCGCTCCTCA)
The “recombinant barcode read abundance (log10)” value of the first is higher: 0.385 for the first, 0.0524 for the second.
